Assay results: patent US20230295119A1, “SUBSTITUTED PYRIDINES FOR THE TREATMENT OF INFLAMMATORY DISEASES” (GOSSAMER BIO SERVICES, INC., priority 2020, published 2023)
Read-outs that look alike come from different tables or passages of the source.

Assays:
TYK2 JH2 domain = TYK2 JH2 domain (Homo sapiens (Human), UniProt P29597); test: TYK2 JH2 NanoBRET assay; format: binding; settings: Table 20, read-out: TYK2 IC50
In short: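 Tracer displacement measured by BRET ratio (acceptor over donor) in live HEK293T cells transfected with a NanoLuc-tagged TYK2 JH2 construct; cells co-exposed to test compound and 0.5 µM final K10 tracer for 2 h before substrate/extracellular inhibitor addition.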

human JAK1 = human JAK1 (Homo sapiens (Human), UniProt P23458); test: JAK1 TR-FRET kinase assay; format: biochemical
Sequence of human JAK1 (P23458 whole entry): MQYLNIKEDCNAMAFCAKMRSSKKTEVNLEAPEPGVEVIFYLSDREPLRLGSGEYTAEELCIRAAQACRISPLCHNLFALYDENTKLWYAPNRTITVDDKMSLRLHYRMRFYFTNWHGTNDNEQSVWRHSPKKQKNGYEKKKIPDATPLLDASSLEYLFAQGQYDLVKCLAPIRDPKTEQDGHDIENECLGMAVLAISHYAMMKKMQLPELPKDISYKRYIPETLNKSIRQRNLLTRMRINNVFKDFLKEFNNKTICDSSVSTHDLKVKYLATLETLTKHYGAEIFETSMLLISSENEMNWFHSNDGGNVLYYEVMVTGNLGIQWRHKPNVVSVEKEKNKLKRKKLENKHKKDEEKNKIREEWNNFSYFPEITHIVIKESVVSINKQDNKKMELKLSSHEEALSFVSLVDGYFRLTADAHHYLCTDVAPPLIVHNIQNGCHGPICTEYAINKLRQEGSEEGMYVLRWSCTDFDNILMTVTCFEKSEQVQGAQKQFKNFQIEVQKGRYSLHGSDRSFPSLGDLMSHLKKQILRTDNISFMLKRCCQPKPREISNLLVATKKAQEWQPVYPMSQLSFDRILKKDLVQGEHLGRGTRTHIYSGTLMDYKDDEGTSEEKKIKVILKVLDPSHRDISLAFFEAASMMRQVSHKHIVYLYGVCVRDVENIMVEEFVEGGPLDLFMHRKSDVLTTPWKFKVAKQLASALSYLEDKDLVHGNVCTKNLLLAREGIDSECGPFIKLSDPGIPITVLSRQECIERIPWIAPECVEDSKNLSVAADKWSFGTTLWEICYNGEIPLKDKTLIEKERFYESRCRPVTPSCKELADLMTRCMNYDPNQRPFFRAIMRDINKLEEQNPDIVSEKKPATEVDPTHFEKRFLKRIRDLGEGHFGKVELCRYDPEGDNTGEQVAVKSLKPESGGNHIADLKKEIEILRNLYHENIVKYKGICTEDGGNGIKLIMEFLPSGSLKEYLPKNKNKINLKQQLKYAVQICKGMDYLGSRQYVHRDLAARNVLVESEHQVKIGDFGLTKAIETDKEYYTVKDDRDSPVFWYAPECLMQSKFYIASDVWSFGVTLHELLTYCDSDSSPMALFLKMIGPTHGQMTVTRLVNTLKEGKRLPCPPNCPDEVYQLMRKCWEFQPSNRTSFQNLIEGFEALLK

human JAK2 = human JAK2 (Homo sapiens (Human), UniProt O60674); test: JAK2 TR-FRET kinase assay; format: biochemical; settings: JAK2 0.025 nM
Sequence of human JAK2 (O60674 whole entry): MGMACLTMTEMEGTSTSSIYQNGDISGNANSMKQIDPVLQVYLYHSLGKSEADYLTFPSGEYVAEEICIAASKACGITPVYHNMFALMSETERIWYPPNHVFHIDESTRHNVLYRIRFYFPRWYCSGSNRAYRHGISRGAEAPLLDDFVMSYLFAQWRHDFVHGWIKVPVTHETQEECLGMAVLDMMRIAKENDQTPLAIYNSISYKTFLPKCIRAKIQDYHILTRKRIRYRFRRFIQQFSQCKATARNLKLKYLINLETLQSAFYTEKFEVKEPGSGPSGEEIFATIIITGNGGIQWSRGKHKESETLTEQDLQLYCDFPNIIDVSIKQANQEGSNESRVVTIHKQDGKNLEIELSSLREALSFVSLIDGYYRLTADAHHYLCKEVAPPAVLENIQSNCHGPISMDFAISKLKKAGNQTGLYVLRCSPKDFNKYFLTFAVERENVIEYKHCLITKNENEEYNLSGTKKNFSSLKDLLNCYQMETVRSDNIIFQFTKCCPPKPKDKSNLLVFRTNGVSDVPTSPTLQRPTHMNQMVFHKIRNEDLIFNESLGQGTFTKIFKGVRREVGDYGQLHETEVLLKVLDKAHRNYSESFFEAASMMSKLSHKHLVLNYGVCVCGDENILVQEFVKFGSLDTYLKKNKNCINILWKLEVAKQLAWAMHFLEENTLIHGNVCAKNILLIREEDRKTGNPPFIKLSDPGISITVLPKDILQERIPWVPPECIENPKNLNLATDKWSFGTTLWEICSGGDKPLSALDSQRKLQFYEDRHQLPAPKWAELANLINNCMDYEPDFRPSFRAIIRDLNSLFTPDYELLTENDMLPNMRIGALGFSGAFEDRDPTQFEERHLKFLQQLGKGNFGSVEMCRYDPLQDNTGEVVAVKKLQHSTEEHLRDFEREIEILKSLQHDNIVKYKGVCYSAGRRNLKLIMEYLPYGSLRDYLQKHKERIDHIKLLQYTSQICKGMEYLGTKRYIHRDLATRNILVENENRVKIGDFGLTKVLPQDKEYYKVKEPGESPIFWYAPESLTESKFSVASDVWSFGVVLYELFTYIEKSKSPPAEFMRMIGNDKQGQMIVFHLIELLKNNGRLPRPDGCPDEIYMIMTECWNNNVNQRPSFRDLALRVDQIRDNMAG

human JAK3 = human JAK3 (Homo sapiens (Human), UniProt P52333); test: JAK3 TR-FRET kinase assay; format: biochemical; settings: JAK3 0.0125 nM
Sequence of human JAK3 (P52333 whole entry): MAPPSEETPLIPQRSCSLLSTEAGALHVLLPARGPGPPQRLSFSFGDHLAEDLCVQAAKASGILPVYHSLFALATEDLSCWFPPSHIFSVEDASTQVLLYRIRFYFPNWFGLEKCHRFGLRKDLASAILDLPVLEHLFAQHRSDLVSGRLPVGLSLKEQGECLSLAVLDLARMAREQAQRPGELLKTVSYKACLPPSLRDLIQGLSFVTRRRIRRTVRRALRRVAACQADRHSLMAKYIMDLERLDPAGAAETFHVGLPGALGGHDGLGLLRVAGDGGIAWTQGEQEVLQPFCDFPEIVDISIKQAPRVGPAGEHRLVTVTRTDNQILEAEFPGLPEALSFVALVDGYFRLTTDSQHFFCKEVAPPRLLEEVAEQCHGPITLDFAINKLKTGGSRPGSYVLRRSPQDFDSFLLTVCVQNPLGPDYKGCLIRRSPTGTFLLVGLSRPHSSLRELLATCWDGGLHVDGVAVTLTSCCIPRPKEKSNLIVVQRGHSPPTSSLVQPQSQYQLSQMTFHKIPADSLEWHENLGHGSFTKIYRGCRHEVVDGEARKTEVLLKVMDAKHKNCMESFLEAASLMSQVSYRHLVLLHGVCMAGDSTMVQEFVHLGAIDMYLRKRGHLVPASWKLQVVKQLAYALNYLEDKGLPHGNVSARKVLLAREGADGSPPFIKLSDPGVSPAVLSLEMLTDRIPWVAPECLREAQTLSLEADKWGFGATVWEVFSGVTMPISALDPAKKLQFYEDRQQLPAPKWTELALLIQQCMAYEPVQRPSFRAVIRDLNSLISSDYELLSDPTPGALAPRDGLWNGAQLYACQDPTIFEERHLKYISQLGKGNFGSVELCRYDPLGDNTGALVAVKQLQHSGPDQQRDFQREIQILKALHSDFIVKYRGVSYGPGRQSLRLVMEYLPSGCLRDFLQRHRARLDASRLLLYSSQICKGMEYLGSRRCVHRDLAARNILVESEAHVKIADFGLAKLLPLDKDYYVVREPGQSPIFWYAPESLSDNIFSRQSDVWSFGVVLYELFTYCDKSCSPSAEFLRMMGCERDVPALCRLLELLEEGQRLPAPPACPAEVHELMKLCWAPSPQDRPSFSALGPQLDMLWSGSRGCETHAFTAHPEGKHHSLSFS

Sequence of TYK2 JH2 domain (P29597 589-875): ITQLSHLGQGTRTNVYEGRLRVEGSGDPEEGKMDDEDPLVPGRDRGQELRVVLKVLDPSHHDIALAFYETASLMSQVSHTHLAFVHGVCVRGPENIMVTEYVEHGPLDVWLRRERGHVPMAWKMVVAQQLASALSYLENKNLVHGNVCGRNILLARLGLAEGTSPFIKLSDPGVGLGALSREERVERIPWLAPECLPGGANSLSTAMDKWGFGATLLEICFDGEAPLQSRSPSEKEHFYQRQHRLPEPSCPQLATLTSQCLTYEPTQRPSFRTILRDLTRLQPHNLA

SMILES | IC50 (TYK2 JH2 domain) [nM] | IC50 (human JAK1; TR-FRET, JAK1 2.5 nM) [nM] | IC50 (human JAK2) [nM] | IC50 (human JAK3) [nM] | IC50 (human JAK1) [nM]
CCC(=O)c1cnc(Nc2ccn(CC3(C)COC3)n2)cc1Nc1cccc(-c2ncn(C)n2)c1OC [Compound 21Q] | 50 to 500 | ≥ 500 | ≥ 500 | 50 to 500 | 
CCC(=O)c1cnc(Nc2ccn(CC3COC3)n2)cc1Nc1cccc(-c2ncn(C)n2)c1OC [Compound 21R] | 5 to 50 | ≥ 500 | ≥ 500 | 50 to 500 | 
CCC(=O)c1cnc(Nc2ccn(CC3CCCO3)n2)cc1Nc1cccc(-c2ncn(C)n2)c1OC (stereo not drawn) [Compound 21S] | 5 to 50 | ≥ 500 | ≥ 500 | ≥ 500 | 
CCC(=O)c1cnc(Nc2ccn(CC3CCOC3)n2)cc1Nc1cccc(-c2ncn(C)n2)c1OC (stereo not drawn) [Compound 21T] | 5 to 50 | ≥ 500 | ≥ 500 | ≥ 500 | 
CCC(=O)c1cnc(Nc2ccn(CC3(CO)COC3)n2)cc1Nc1cccc(-c2ncn(C)n2)c1OC [Compound 21U] | 50 to 500 | ≥ 500 | 50 to 500 | 50 to 500 | 
CCC(=O)c1cnc(Nc2ccn(CC3CCO3)n2)cc1Nc1cccc(-c2ncn(C)n2)c1OC (stereo not drawn) [Compound 21V] | 50 to 500 | ≥ 500 | ≥ 500 | ≥ 500 | 
CCC(=O)c1cnc(Nc2ccn(C[C@H]3C[C@@H](O)C3)n2)cc1Nc1cccc(-c2ncn(C)n2)c1OC [Compound 21W] | 5 to 50 | ≥ 500 | ≥ 500 | ≥ 500 | 
CCC(=O)c1cnc(Nc2ccn(CC3CN(C)C3)n2)cc1Nc1cccc(-c2ncn(C)n2)c1OC [Compound 21X] | 50 to 500 | ≥ 500 | ≥ 500 | ≥ 500 | 
CCC(=O)c1cnc(Nc2cc(OC)n(CCOC)n2)cc1Nc1cccc(-c2ncn(C)n2)c1OC [Compound 21Y] | 5 to 50 | ≥ 500 | 50 to 500 | 50 to 500 | 
CCC(=O)c1cnc(Nc2cc(C)n(CCOC)n2)cc1Nc1cccc(-c2ncn(C)n2)c1OC [Compound 21Z] | 5 to 50 | ≥ 500 | ≥ 500 | 50 to 500 | 
CCC(=O)c1cnc(NC(=O)C2CC2c2cnn(C)c2)cc1Nc1cccc(-c2ncn(C)n2)c1OC (stereo not drawn) [Compound 22A, N-(4-((2-methoxy-3-(1-methyl-1H-1,2,4-tliazol-3-yl)phenyl)amino)-5-propionylpyridin-2-yl)-2-(1-methyl-1H-pyrazol-4-yl)cyclopropane-1-carboxamide] | 5 to 50 | ≥ 500 | ≥ 500 | ≥ 500 | 
CCC(=O)c1cnc(NC(=O)C2CC2c2ccccn2)cc1Nc1cccc(-c2ncn(C)n2)c1OC (stereo not drawn) [Compound 22B] | 50 to 500 | ≥ 500 | ≥ 500 | ≥ 500 | 
CCC(=O)c1cnc(NC(=O)[C@@H]2C[C@H]2C(=O)O)cc1Nc1cccc(-c2ncn(C)n2)c1OC [Compound 22C] | ≥ 500 | ≥ 500 | ≥ 500 | ≥ 500 | 
CCC(=O)c1cnc(NC(=O)[C@@H]2C[C@H]2CN(C)C)cc1Nc1cccc(-c2ncn(C)n2)c1OC [Compound 22D] | 5 to 50 | ≥ 500 | ≥ 500 | ≥ 500 | 
CCC(=O)c1cnc(NC(=O)[C@@H]2C[C@H]2C(N)=O)cc1Nc1cccc(-c2ncn(C)n2)c1OC [Compound 22E] | ≥ 500 | ≥ 500 | ≥ 500 | ≥ 500 | 
CCC(=O)c1cnc(NC(=O)[C@@H]2C[C@@H]2C(N)=O)cc1Nc1cccc(-c2ncn(C)n2)c1OC [Compound 22G] | ≥ 500 | ≥ 500 | ≥ 500 | ≥ 500 | 
CCC(=O)c1cnc(NC(=O)[C@@H]2C[C@H]2NC(=O)OC(C)(C)C)cc1Nc1cccc(-c2ncn(C)n2)c1OC [Compound 22H] | ≥ 500 | ≥ 500 | ≥ 500 | ≥ 500 | 

SMILES | IC50 (TYK2 JH2 domain) [nM] | IC50 (human JAK1; TR-FRET, JAK1 2.5 nM) [nM] | IC50 (human JAK2) [nM] | IC50 (human JAK3) [nM] | IC50 (human JAK1) [nM]
CCC(=O)c1cnc(NC(=O)[C@@H]2C[C@H]2NC(C)=O)cc1Nc1cccc(-c2ncn(C)n2)c1OC [Compound 22I] | ≥ 500 | ≥ 500 | ≥ 500 | ≥ 500 | 
CCC(=O)c1cnc(NC(=O)[C@@H]2C[C@@H]2NC(=O)OC(C)(C)C)cc1Nc1cccc(-c2ncn(C)n2)c1OC [Compound 22J] | ≥ 500 | ≥ 500 | ≥ 500 | ≥ 500 | 
CCC(=O)c1cnc(NC(=O)[C@@H]2C[C@@H]2NC(C)=O)cc1Nc1cccc(-c2ncn(C)n2)c1OC [Compound 22K] | ≥ 500 | ≥ 500 | ≥ 500 | ≥ 500 | 
CCC(=O)c1cnc(NC(=O)[C@@H]2C[C@H]2CC#N)cc1Nc1cccc(-c2ncn(C)n2)c1OC [Compound 22L] | ≥ 500 | ≥ 500 | ≥ 500 | ≥ 500 | 
CCC(=O)c1cnc(NC(=O)C2CC2c2ccn(C)n2)cc1Nc1cccc(-c2ncn(C)n2)c1OC (stereo not drawn) [Compound 22M] | 50 to 500 | ≥ 500 | ≥ 500 | ≥ 500 | 
CCC(=O)c1cnc(NC(=O)[C@@H]2C[C@H]2CS(C)(=O)=O)cc1Nc1cccc(-c2ncn(C)n2)c1OC [Compound 22N] | 50 to 500 | ≥ 500 | ≥ 500 | ≥ 500 | 
CCC(=O)c1cnc(NC(=O)CC2CCN(C)CC2)cc1Nc1cccc(-c2ncn(C)n2)c1OC [Compound 23A, N-(4-((2-methoxy-3-(1-methyl-1H-1,2,4-triazol-3-yl)phenyl)amino)-5-propionylpyridin-2-yl)-2-(1-methylpiperidin-4-yl)acetamide] | 5 to 50 | ≥ 500 | ≥ 500 | ≥ 500 | 
CCC(=O)c1cnc(NC(=O)CC2CC2)cc1Nc1cccc(-c2ncn(C)n2)c1OC [Compound 23B] | 5 to 50 | ≥ 500 | ≥ 500 | ≥ 500 | 
CCC(=O)c1cnc(NC(=O)CC2(O)CC2)cc1Nc1cccc(-c2ncn(C)n2)c1OC [Compound 23C] | 50 to 500 | ≥ 500 | ≥ 500 | ≥ 500 | 
CCC(=O)c1cnc(NC(=O)CCN2CCCC2)cc1Nc1cccc(-c2ncn(C)n2)c1OC [Compound 23D] | 50 to 500 | ≥ 500 | ≥ 500 | ≥ 500 | 
CCC(=O)c1cnc(NC(=O)CCCN2CCCC2)cc1Nc1cccc(-c2ncn(C)n2)c1OC [Compound 23E] | 50 to 500 | ≥ 500 | ≥ 500 | ≥ 500 | 
CCC(=O)c1cnc(NC(=O)CCc2cnn(C)c2)cc1Nc1cccc(-c2ncn(C)n2)c1OC [Compound 23F] | 50 to 500 | ≥ 500 | ≥ 500 | ≥ 500 | 
CCC(=O)c1cnc(NC(=O)CC2CN(C)C2)cc1Nc1cccc(-c2ncn(C)n2)c1OC [Compound 23G] | ≥ 500 | ≥ 500 | ≥ 500 | ≥ 500 | 
CCC(=O)c1cnc(NC(=O)CCNC)cc1Nc1cccc(-c2ncn(C)n2)c1OC [Compound 23H] | 50 to 500 | ≥ 500 | ≥ 500 | ≥ 500 | 
CCC(=O)c1cnc(Nc2cc(OCCOC)n(C)n2)cc1Nc1cccc(-c2ncn(C)n2)c1OC [Compound 24A, 1-(4-((2-methoxy-3-(1-methyl-1H-1,2,4-triazol-3-yl)phenyl)amino)-6-((5-(2-methoxyethoxy)-1-methyl-1H-pyrazol-3-yl)amino)pyridin-3-yl)propan-1-one] | < 5 |  | 50 to 500 | 50 to 500 | > 500
CCC(=O)c1cnc(NC(=O)C2CC2)cc1Nc1cc(F)cc(-c2ncn(C)n2)c1OC [Compound 25A, N-(4-((5-fluoro-2-methoxy-3-(1-methyl-1H-1,2,4-triazol-3-yl)phenyl)amino)-5-propionylpyridin-2-yl)cyclopropanecarboxamide] | 5 to 50 | ≥ 500 | ≥ 500 | ≥ 500 | 
